Drawing on US8461329B2, “Isoquinoline derivative” (Taisho Pharmaceutical Co., Ltd., priority 2008, dated 2013), this text covers IC50 for 56 compounds.

Each structure is given as a SMILES string.

For one assay, the target named is T1, CRTH2 (KB8 cells) (Homo sapiens, UniProt Q9Y5Y4).
T1 construct: host or cells: KB8 cells (human CRTH2 expression cell)
T1 sequence (Q9Y5Y4 1-395): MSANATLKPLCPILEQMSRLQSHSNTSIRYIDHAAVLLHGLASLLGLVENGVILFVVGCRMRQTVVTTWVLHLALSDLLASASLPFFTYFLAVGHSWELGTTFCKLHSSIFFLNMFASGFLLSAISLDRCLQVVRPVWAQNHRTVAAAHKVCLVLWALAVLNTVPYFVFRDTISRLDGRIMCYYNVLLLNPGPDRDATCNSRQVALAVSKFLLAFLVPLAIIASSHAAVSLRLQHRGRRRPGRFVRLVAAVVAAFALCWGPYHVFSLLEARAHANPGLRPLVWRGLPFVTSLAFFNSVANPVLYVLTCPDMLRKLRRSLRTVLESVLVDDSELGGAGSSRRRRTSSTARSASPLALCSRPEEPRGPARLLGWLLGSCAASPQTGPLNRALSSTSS
As to the kind of experiment: CRTH2 antagonist test (PGD2-induced intracellular calcium ion concentration increase in KB8 cells). The class given is cell-based. Conditions: PGD2 100 nM, Fluo-4 calcium fluorescence, read-out: CRTH2 antagonist activity IC50 value. Here is the method:
The antagonist activity of the compound of the present invention was considered by using the intracellular calcium ion concentration increase reaction induced when the prostaglandin D2 was added to KB8 cells.
Fluo-4-AM (4-(6-acetoxymethoxy-2,7-difluoro-3-oxo-9-xanthenyl)-4′-methyl-2,2′-(ethylenedioxy)dianilide-N,N,N′,N′-tetraacetic acid tetrakis(acetoxymethyl) ester (SIGMA, final concentration: 1 μM) was added to KB8 cells, and the cells were incubated at 37° C. for 30 min, washed with phosphate buffer (Invitrogen), and then suspended in Hank's balanced salt solution (Invitrogen)) containing a reaction buffer solution (10 mM HEPES (Invitrogen), and 1 mM calcium chloride (SIGMA). The suspension was dispensed in a 96 well plate (Nunc) so that 2×10^5 cells/well were placed, and the compound of the present invention and PGD2 (final concentration: 100 nM) were added. The fluorescence intensity thereof was measured over time by using FDSS6000 (Hamamatsu Photonics), and thus the maximum fluorescence intensity value “d” was obtained. The same procedure was carried out in the absence of the compound, and the maximum fluorescence intensity value “e” was obtained; and the same procedure was carried out in the absence of the compound and […], and the maximum fluorescence intensity value “f” was obtained.
The calcium ion concentration increase inhibition rate of a compound was calculated by the following calculation formula: Inhibitory rate(%)=[1−(d−f)/(e−f)]×100
That is to say, by using calcium ion concentration increase inhibitory rates of compounds to be tested having various concentrations, the IC50 value was calculated according to a dose-dependent inhibition curve analyzed by using XLfit (IDBS) as a data analysis software, and the value was defined as an indicator of the antagonist activity. In Tables, A denotes an inhibitory activity showing the IC50 value of less than 50 nM; B denotes an inhibitory activity showing the IC50 value of 50 nM or greater and less than 500 nM; C denotes an inhibitory activity showing the IC50 value of 500 nM or greater and less than 1000 nM; and D denotes an inhibitory activity showing the IC50 value of 1000 nM or greater.
With `O=C(O)Cc1cnc(Cc2ccc(C(=O)NCCc3ccc(C(F)(F)F)cc3)cc2)c2ccccc12` [Example 201], the IC50 came out at 20 nM.

The same assay, now with this note: PGD2 final concentration 100 nM, Fluo-4-AM fluorescence, read-out: antagonist activity (IC50 value, inhibition of calcium ion concentration increase).
Regarding `O=C(O)Cc1cnc(Cc2ccc(C(=O)NCCc3ccccc3)cc2)c2ccccc12` [Example 161, (1-{4-[(2-phenylethyl)carbamoyl]benzyl}isoquinolin-4-yl)acetic acid], the IC50 was in the range of 50 to 500 nM.
For `O=C(O)Cc1cnc(Cc2ccc(C(=O)NCCc3ccccc3Cl)cc2)c2ccccc12` [Example 162], the IC50 is < 50 nM.
In the case of `O=C(O)Cc1cnc(Cc2ccc(C(=O)NCCCc3ccc(Cl)cc3)cc2)c2ccccc12` [Example 164], the IC50 is < 50 nM.
With `Cc1ccc(CCNC(=O)c2ccc(Cc3ncc(CC(=O)O)c4ccccc34)cc2)cc1` [Example 165], the IC50 is < 50 nM.
In the case of `Cc1cccc(CCNC(=O)c2ccc(Cc3ncc(CC(=O)O)c4ccccc34)cc2)c1` [Example 166], the IC50 is < 50 nM.
Regarding `Cc1ccccc1CCNC(=O)c1ccc(Cc2ncc(CC(=O)O)c3ccccc23)cc1` [Example 167], the IC50 is < 50 nM.
Consider `Cc1ccc(CCNC(=O)c2ccc(Cc3ncc(CC(=O)O)c4ccccc34)cc2)cc1C` [Example 168], for which the IC50 lay in the range of 50 to 500 nM.
Regarding `Cc1ccc(C)c(CCNC(=O)c2ccc(Cc3ncc(CC(=O)O)c4ccccc34)cc2)c1` [Example 169], the IC50 was in the range of 50 to 500 nM.
The same measure, in the same setting: with `COc1ccc(CCNC(=O)c2ccc(Cc3ncc(CC(=O)O)c4ccccc34)cc2)cc1Cl` [Example 170] the figure was 50 to 500 nM.
For the compound `COc1ccc(CCNC(=O)c2ccc(Cc3ncc(CC(=O)O)c4ccccc34)cc2)cc1C` [Example 171], the IC50 fell in the range of 50 to 500 nM.
Regarding `O=C(O)Cc1cnc(Cc2ccc(C(=O)NCCc3cccc(Br)c3)cc2)c2ccccc12` [Example 172], the IC50 was in the range of 50 to 500 nM.
Regarding `O=C(O)Cc1cnc(Cc2ccc(C(=O)NCCc3ccc(C(=O)O)cc3)cc2)c2ccccc12` [Example 173], the IC50 is ≥ 1000 nM.
For the compound `O=C(O)Cc1cnc(Cc2ccc(C(=O)NCCc3ccc([N+](=O)[O-])cc3)cc2)c2ccccc12` [Example 174], the IC50 lay in the range of 50 to 500 nM.
Same read-out and setting: with `O=C(O)Cc1cnc(Cc2ccc(C(=O)NCCc3ccccn3)cc2)c2ccccc12` [Example 175] the figure was ≥ 1000 nM; with `O=C(O)Cc1cnc(Cc2ccc(C(=O)NCCc3cccnc3)cc2)c2ccccc12` [Example 176], ≥ 1000 nM; with `O=C(O)Cc1cnc(Cc2ccc(C(=O)NCCc3ccncc3)cc2)c2ccccc12` [Example 177], ≥ 1000 nM.
Take `O=C(O)Cc1cnc(Cc2ccc(C(=O)NCCOc3ccc(Cl)cc3)cc2)c2ccccc12` [Example 178]: the IC50 was in the range of 50 to 500 nM.
On to `O=C(O)Cc1cnc(Cc2ccc(C(=O)NCCc3c[nH]c4ccccc34)cc2)c2ccccc12` [Example 179], for which the IC50 was < 50 nM.
For the compound `O=C(O)Cc1cnc(Cc2ccc(C(=O)NCCc3ccc(Cl)cc3Cl)cc2)c2ccccc12` [Example 180], the IC50 was < 50 nM.
`O=C(O)Cc1cnc(Cc2ccc(C(=O)NCCc3ccccc3F)cc2)c2ccccc12` [Example 181]: the IC50 fell in the range of 50 to 500 nM.
On to `O=C(O)Cc1cnc(Cc2ccc(C(=O)NCCc3cccc(F)c3)cc2)c2ccccc12` [Example 182], for which the IC50 fell in the range of 50 to 500 nM.
In the case of `O=C(O)Cc1cnc(Cc2ccc(C(=O)NCCc3ccccc3Br)cc2)c2ccccc12` [Example 183], the IC50 is < 50 nM.
Same read-out and setting: as for `COc1ccccc1CCNC(=O)c1ccc(Cc2ncc(CC(=O)O)c3ccccc23)cc1` [Example 184], the figure is 50 to 500 nM; as for `O=C(O)Cc1cnc(Cc2ccc(C(=O)NCCN3CCOCC3)cc2)c2ccccc12` [Example 185], ≥ 1000 nM.
For the compound `CCCCNC(=O)c1ccc(Cc2ncc(CC(=O)O)c3ccccc23)cc1` [Example 186], the IC50 was in the range of 500 to 1000 nM.
In the case of `O=C(O)Cc1cnc(Cc2ccc(C(=O)NCCC3CCCCC3)cc2)c2ccccc12` [Example 187], the IC50 was < 50 nM.
In the case of `O=C(O)Cc1cnc(Cc2ccc(C(=O)NCCC3=CCCCC3)cc2)c2ccccc12` [Example 188], the IC50 was 50 to 500 nM.
Consider `COc1ccc(CCNC(=O)c2ccc(Cc3ncc(CC(=O)O)c4ccccc34)cc2)cc1OC` [Example 189], for which the IC50 is ≥ 1000 nM.
In the case of `O=C(O)Cc1cnc(Cc2ccc(C(=O)NCCc3c(F)cccc3Cl)cc2)c2ccccc12` [Example 190], the IC50 is 50 to 500 nM.
For the compound `O=C(O)Cc1cnc(Cc2ccc(C(=O)NCCc3c(Cl)cccc3Cl)cc2)c2ccccc12` [Example 191], the IC50 lay in the range of 50 to 500 nM.
Regarding `Cc1c(C)c(C)c(CCNC(=O)c2ccc(Cc3ncc(CC(=O)O)c4ccccc34)cc2)c(C)c1C` [Example 192], the IC50 was < 50 nM.
With `CC(C)(C)c1ccc(CCNC(=O)c2ccc(Cc3ncc(CC(=O)O)c4ccccc34)cc2)cc1` [Example 193], the IC50 was < 50 nM.
For `O=C(O)Cc1cnc(Cc2ccc(C(=O)NCCc3ccc(-c4ccccc4)cc3)cc2)c2ccccc12` [Example 194], the IC50 is < 50 nM.
In the case of `O=C(O)Cc1cnc(Cc2ccc(C(=O)NCCc3ccc(Oc4ccccc4)cc3)cc2)c2ccccc12` [Example 195], the IC50 was < 50 nM.
Regarding `O=C(O)Cc1cnc(Cc2ccc(C(=O)NCCc3ccc(O)cc3)cc2)c2ccccc12` [Example 196], the IC50 lay in the range of 500 to 1000 nM.
Consider `COc1cccc(CCNC(=O)c2ccc(Cc3ncc(CC(=O)O)c4ccccc34)cc2)c1` [Example 197], for which the IC50 was 50 to 500 nM.
As to `O=C(O)Cc1cnc(Cc2ccc(C(=O)NCCc3ccc(Br)cc3)cc2)c2ccccc12` [Example 199], the IC50 is < 50 nM.
With `O=C(O)Cc1cnc(Cc2ccc(C(=O)NCCc3ccc(F)cc3)cc2)c2ccccc12` [Example 200], the IC50 is 50 to 500 nM.
As to `O=C(O)Cc1cnc(Cc2ccc(C(=O)NCCc3ccc(C(F)(F)F)cc3)cc2)c2ccccc12` [Example 201], the IC50 is < 50 nM.
Turning to `O=C(O)Cc1cnc(Cc2ccc(C(=O)NCCc3ccc4ccccc4n3)cc2)c2ccccc12` [Example 202], the IC50 was in the range of 50 to 500 nM.
For `O=C(O)Cc1cnc(Cc2ccc(C(=O)NCCc3ccc(OC(F)(F)F)cc3)cc2)c2ccccc12` [Example 203], the IC50 is < 50 nM.
Regarding `Cc1ccc(CCNC(=O)c2ccc(Cc3ncc(CC(=O)O)c4ccccc34)cc2)cc1F` [Example 204], the IC50 is < 50 nM.
With `O=C(O)Cc1cnc(Cc2ccc(C(=O)NCCc3ccc4ccccc4c3)cc2)c2ccccc12` [Example 205], the IC50 is < 50 nM.
For the compound `CN(C)c1ccc(CCNC(=O)c2ccc(Cc3ncc(CC(=O)O)c4ccccc34)cc2)cc1` [Example 206], the IC50 was 50 to 500 nM.
With `CS(=O)(=O)c1ccc(CCNC(=O)c2ccc(Cc3ncc(CC(=O)O)c4ccccc34)cc2)cc1` [Example 207], the IC50 was ≥ 1000 nM.
`Cc1ccc(CCNC(=O)c2ccc(Cc3ncc(CC(=O)O)c4ccccc34)cc2)c(C)c1` [Example 208]: the IC50 was < 50 nM.
Same read-out and setting: with `COc1cc(CCNC(=O)c2ccc(Cc3ncc(CC(=O)O)c4ccccc34)cc2)cc(OC)c1O` [Example 209] the figure was ≥ 1000 nM; with `O=C(O)Cc1cnc(Cc2ccc(C(=O)NCCc3ccc(F)c(Cl)c3)cc2)c2ccccc12` [Example 210], < 50 nM.
Turning to `COc1cc(CCNC(=O)c2ccc(Cc3ncc(CC(=O)O)c4ccccc34)cc2)ccc1C` [Example 211], the IC50 lay within 50 to 500 nM.
On to `O=C(O)Cc1cnc(Cc2ccc(C(=O)NCCc3cc(F)cc(F)c3)cc2)c2ccccc12` [Example 212], for which the IC50 was 50 to 500 nM.
In the case of `Cc1ccc(F)cc1CCNC(=O)c1ccc(Cc2ncc(CC(=O)O)c3ccccc23)cc1` [Example 213], the IC50 is 50 to 500 nM.
With `O=C(O)Cc1cnc(Cc2ccc(C(=O)NCCC3CCOCC3)cc2)c2ccccc12` [Example 214], the IC50 was ≥ 1000 nM.
On to `O=C(O)Cc1cnc(Cc2ccc(C(=O)NCCc3cc(F)cc(C(F)(F)F)c3)cc2)c2ccccc12` [Example 215], for which the IC50 fell in the range of 50 to 500 nM.
For `O=C(O)Cc1cnc(Cc2ccc(C(=O)NCCc3cc(F)cc(Cl)c3)cc2)c2ccccc12` [Example 216], the IC50 lay in the range of 50 to 500 nM.
Same read-out and setting: with `Cc1cccc(C)c1CCNC(=O)c1ccc(Cc2ncc(CC(=O)O)c3ccccc23)cc1` [Example 217] the figure was < 50 nM; with `O=C(O)Cc1cnc(Cc2ccc(C(=O)NCCc3ccc4c(c3)CCCC4)cc2)c2ccccc12` [Example 218], < 50 nM.
